From patent publication US20050209278A1, “Piperidinyl- and piperazinyl-sulfonylmethyl hydroxamic acids and their use as protease inhibitors” (priority 2002, published 2005)
Several values for one entry are separate records, joined by “and”; a condition that tells them apart may be missing. Equal values may be shown once.

How the values were obtained:
MMP-1 = molecular target: T1, MMP-1 (Homo sapiens, UniProt P03956); assay: In vitro MMP inhibition, IC50 determination (fluorogenic substrate I); type: biochemical; conditions: value in parenthesis; read-out: MMP-1 (IC-50)
T1 construct: made in house; host or cells: MMP-1-transfected HT-1080 cells (spent media)
T1 sequence (P03956 100-469): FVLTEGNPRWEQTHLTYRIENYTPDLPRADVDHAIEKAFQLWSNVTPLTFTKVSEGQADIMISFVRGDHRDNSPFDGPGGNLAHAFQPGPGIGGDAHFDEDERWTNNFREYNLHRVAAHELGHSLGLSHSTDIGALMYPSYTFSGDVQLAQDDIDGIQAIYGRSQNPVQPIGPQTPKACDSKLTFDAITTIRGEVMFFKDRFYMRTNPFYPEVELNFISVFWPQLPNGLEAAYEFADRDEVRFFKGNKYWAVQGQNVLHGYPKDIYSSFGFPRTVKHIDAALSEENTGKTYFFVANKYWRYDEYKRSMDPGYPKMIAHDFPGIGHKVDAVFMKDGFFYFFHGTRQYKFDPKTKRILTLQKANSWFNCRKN
Protocol: Several hydroxamic acids and salts thereof were analyzed in in vitro assays to determine their ability to inhibit the MMP cleavage of peptide substrates. […] and IC50 constants were calculated from the assayed hydroxamic acid-MMP interactions. Human recombinant MMP-1, MMP-2, MMP-9, MMP-13, and MMP-14 were used in this assay. All enzymes were prepared in Assignee's laboratories following usual laboratory procedures. Protocols for the preparation and use of these enzymes are available in the scientific literature. See, e.g., Enzyme Nomenclature (Academic Press, San Diego, Calif., 1992) (and the citations therein). See also, Freije et al., “Molecular cloning and expression of collagenase-3, a novel human matrix metalloproteinase produced by breast carcinomas,” J Biol. Chem., 269(24), 16766-16773 (1994). The MMP-1 proenzyme was purified from the spent media of MMP-1-transfected HT-1080 cells provided by Dr. Harold Welgus of Washington University (St. Louis, Mo.). The protein was purified on a zinc chelating column. All MMPs were activated using 4-aminophenylmercuric acetate (“APMA”, Sigma Chemical, St. Louis, Mo.) or trypsin. MMP-9 also was activated using human recombinant MMP-3 (purified in Assignee's laboratory following standard cloning and purification techniques). […] Substrate (I) was purchased from Baychem (Redwood City, Calif.), and substrate II was prepared Assignee's laboratory. Substrate I was used in the IC50 determination assays, while substrate II was used in the Ki determination assays. In the absence of MMP inhibitory activity, either substrate is cleaved at the Gly-Leu peptide bond. […] The stock solutions of the assayed hydroxamic acids (or salts thereof) were prepared in 1% dimethyl sulfoxide (DMSO). […] The experiment controls contained the same amount of Buffer A/DMSO as the assayed sample, but contained no hydroxamic acid (or salt thereof). The assays from which the IC50 determinations were made were performed as follows. […] Louis, Mo.). The assayed hydroxamic acid samples were incubated in MicrofluorTM White Plates (Dynatech, Chantilly, Va.) and analyzed on a Perkin Elmer […] plate reader (Norwalk, Conn.). The excitation wavelength was 328 nm, and the emission wavelength-415 nm. […] As stated in the previous paragraph, samples containing varying concentrations of the same assayed hydroxamic acid were prepared. Inhibition was measured as a reduction in fluorescent intensity as a function of MMP inhibitor concentration. […] All values in Table 2 are given in nM units. The IC50 measurements are in parenthesis.

MMP-9 = molecular target: T2, MMP-9 (Homo sapiens, UniProt P14780); assay: as above; type: biochemical; conditions: value in parenthesis; read-out: MMP-9 (IC-50)
T2 construct: made in house; host or cells: MMP-9-transfected HT1080 cells (spent media)
T2 sequence (P14780 107-707 limits assumed): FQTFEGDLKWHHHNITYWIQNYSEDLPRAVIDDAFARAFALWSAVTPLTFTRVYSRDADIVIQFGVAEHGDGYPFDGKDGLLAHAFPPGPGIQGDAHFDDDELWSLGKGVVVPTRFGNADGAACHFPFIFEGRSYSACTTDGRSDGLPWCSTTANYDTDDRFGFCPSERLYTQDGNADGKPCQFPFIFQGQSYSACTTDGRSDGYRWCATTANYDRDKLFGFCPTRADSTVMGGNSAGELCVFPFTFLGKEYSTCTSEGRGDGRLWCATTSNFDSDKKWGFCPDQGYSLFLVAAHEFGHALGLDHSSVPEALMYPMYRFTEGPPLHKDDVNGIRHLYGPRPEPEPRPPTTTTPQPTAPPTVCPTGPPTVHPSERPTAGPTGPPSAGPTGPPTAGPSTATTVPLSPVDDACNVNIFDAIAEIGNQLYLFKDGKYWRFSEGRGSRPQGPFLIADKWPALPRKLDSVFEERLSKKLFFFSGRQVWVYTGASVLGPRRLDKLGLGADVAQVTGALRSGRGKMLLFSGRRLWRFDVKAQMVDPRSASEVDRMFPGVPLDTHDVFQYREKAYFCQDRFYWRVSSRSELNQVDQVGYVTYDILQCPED
Protocol: Several hydroxamic acids and salts thereof were analyzed in in vitro assays to determine their ability to inhibit the MMP cleavage of peptide substrates. […] and IC50 constants were calculated from the assayed hydroxamic acid-MMP interactions. Human recombinant MMP-1, MMP-2, MMP-9, MMP-13, and MMP-14 were used in this assay. All enzymes were prepared in Assignee's laboratories following usual laboratory procedures. Protocols for the preparation and use of these enzymes are available in the scientific literature. See, e.g., Enzyme Nomenclature (Academic Press, San Diego, Calif., 1992) (and the citations therein). See also, Freije et al., “Molecular cloning and expression of collagenase-3, a novel human matrix metalloproteinase produced by breast carcinomas,” J Biol. Chem., 269(24), 16766-16773 (1994). The MMP-9 proenzyme was purified by gelatin Sepharose chromatography from spent media of MMP-9-transfected HT1080 cells provided by Dr. Howard Welgus of Washington University (St. Louis, Mo.). All MMPs were activated using 4-aminophenylmercuric acetate (“APMA”, Sigma Chemical, St. Louis, Mo.) or trypsin. MMP-9 also was activated using human recombinant MMP-3 (purified in Assignee's laboratory following standard cloning and purification techniques). […] Substrate (I) was purchased from Baychem (Redwood City, Calif.), and substrate II was prepared Assignee's laboratory. Substrate I was used in the IC50 determination assays, while substrate II was used in the Ki determination assays. In the absence of MMP inhibitory activity, either substrate is cleaved at the Gly-Leu peptide bond. […] The stock solutions of the assayed hydroxamic acids (or salts thereof) were prepared in 1% dimethyl sulfoxide (DMSO). […] The experiment controls contained the same amount of Buffer A/DMSO as the assayed sample, but contained no hydroxamic acid (or salt thereof). The assays from which the IC50 determinations were made were performed as follows. […] Louis, Mo.). The assayed hydroxamic acid samples were incubated in MicrofluorTM White Plates (Dynatech, Chantilly, Va.) and analyzed on a Perkin Elmer […] plate reader (Norwalk, Conn.). The excitation wavelength was 328 nm, and the emission wavelength-415 nm. […] As stated in the previous paragraph, samples containing varying concentrations of the same assayed hydroxamic acid were prepared. Inhibition was measured as a reduction in fluorescent intensity as a function of MMP inhibitor concentration. […] All values in Table 2 are given in nM units. The IC50 measurements are in parenthesis.

| IC50 (MMP-1) | IC50 (MMP-9) | SMILES |
| --- | --- | --- |
| 6.85 µM | 5.7 nM | COCCN1CCC(C(=O)NO)(S(=O)(=O)N2CCN(c3ccc(Br)cc3)CC2)CC1 [Example 201] |
| > 10 µM | 3.2 nM and 1.9 nM | O=C(NO)C1(S(=O)(=O)N2CCN(c3ccc(OC(F)(F)F)cc3)CC2)CCN(C2CC2)CC1 [Example 203] |

The next lines start with the compound.

| SMILES | IC50 (MMP-1) | IC50 (MMP-9) |
| --- | --- | --- |
| CCCCCCc1ccc(N2CCN(S(=O)(=O)C3(C(=O)NO)CCN(CCOC)CC3)CC2)cc1 [Example 199] | > 10 µM | 1 nM |
| CCCc1ccc(N2CCN(S(=O)(=O)C3(C(=O)NO)CCN(CCOC)CC3)CC2)cc1 [Example 200] | > 10 µM | < 0.1 nM |
| COCCN1CCC(C(=O)NO)(S(=O)(=O)N2CCN(c3ccc(OC(F)(F)F)cc3)CC2)CC1 [Example 202] | > 10 µM | 6.3 nM |
